# What was measured:
# [1] = tested on: MELOE-1 specific CD4+ T cells; assay: MELOE-1 CD4+ T cell responses in PBMC from healthy donors: restimulation of microcultures with overlapping peptides, CD4/TNF-α staining; type: cell-based, human; details: for Microcultures containing MELOE-1 specific CD4+ T cells (TNF-α production): positive/tested microcultures; for donors in which CD4 responses against the region were detected: seven healthy donors
# Experimental: PBMC from healthy donors were stimulated with 10 μM of MELOE-1. After 14 days, the presence of CD4 T cells specific for the different regions of MELOE-1 was assessed by restimulating cells with MELOE-12-21, MELOE-111-30, MELOE-118-37 and MELOE-126-46 peptides, followed by CD4/TNF-α double staining and flow cytometry analysis. Between brackets is indicated the mean % of TNF-α producing CD4 T cells, in positive microcultures. NA: not available.
# (§1) PBMC from healthy donors or melanoma patients (2·10^5 cells/well) were cultured for 14 days with 10 μM of MELOE-1 whole antigen (46 amino acids) in RPMI medium supplemented with 8% HS, 50 IU/ml of rIL-2 (Chiron, France) and L-Glutamin, in 96-well multiplates. Microcultures were then restimulated individually with each overlapping peptide (MELOE-12-21, MELOE-111-30, MELOE-118-37, MELOE-12646 or MELOE-122-46 for melanoma patients) in the presence of 10 μg/mL brefeldin A for 5 hours and the percentage of CD4^+ specific T cells was assessed by TNF-α, IFN-γ or IL-4 intracellular staining. A negative control without peptide was included in all experiments.
# Our purpose was to look for the existence of class II helper epitopes all along MELOE-1 sequence (SEQ ID NO:20), in order to document the immunogenicity of the different regions of this melanoma antigen. We stimulated 2·10^7 PBMC from seven healthy donors with MELOE-1 whole antigen and tested, after a 14-day culture period the presence of CD4 T cells specific for each region of the protein. Microcultures were screened for TNFα production by CD4+ T cells, after restimulation with four MELOE-1 derived overlapping peptides (Table I), in an autopresentation assay. […] On the contrary, the central region 18-37, containing an already described DR11-restricted epitope (24-37) located just at the end of this 20-mer peptide (Rogel et al., 2011), induced specific responses in microcultures deriving from only 2/7 donors (HD9 and HD17, both expressing the DR11 element). In these two donors, we detected 6 and 7% of positive microcultures, containing between 0.6 to 3.7% of TNFα producing CD4 T cells.
# [2] = tested on: MELOE-1 specific CD4 T cells; assay: MELOE-1 CD4+ T cell responses in PBMC from melanoma patients: restimulation with peptides, CD4/IFN-γ (Th1) and CD4/IL4 (Th2) staining; type: cell-based, human; details: for Th1 responses, % of tested microcultures: 576 tested microcultures from melanoma patients, IFN-γ; for patients in which Th2 responses were detected / patients in which CD4 responses specific for the region were detected: melanoma patients; for patients in which Th2 responses were detected: IL4; for patients in which CD4 responses specific for the region were detected: Table III, Th1 (IFN-γ); for mean % of cytokine producing CD4 T cells, in positive microcultures (IFN-γ): Th1; for Th1 responses (IFN-γ positive microcultures) / Th2 responses (IL4 positive microcultures): positive/tested microcultures; for mean % of cytokine producing CD4 T cells, in positive microcultures (IL4): Th2
# Experimental: PBMC from melanoma patients were stimulated with 10 μM of MELOE-1. After 14 days, the presence of CD4 T cells specific for the different regions of MELOE-1 was assessed by restimulating cells with MELOE-12-21, MELOE-111-30 and MELOE-122-46 peptides, followed by CD4/IFN-γ double staining for the detection of Th1 responses, and by CD4/IL4 double staining for Th2 responses. Between brackets is indicated the mean % of cytokine producing CD4 T cells, in positive microcultures.
# as §1
# In order to confirm the immunogenicity of each MELOE-1 regions in melanoma patients, we stimulated melanoma patients PBMC with the MELOE-1 whole protein, and tested the reactivity of stimulated lymphocytes towards the three most immunogenic regions: 2-21, 11-30, and 22-46. For this study, instead of challenging microcultures with the 18-37 peptide, that appeared poorly immunogenic, we extended the C-terminus region from 26-46 to 22-46, in order to also detect responses to our previously described HLA-DR11-restricted epitope (24-37). […] We tested the induction of CD4 specific responses from MELOE-1 stimulated PBMC of […] melanoma patients. We documented CD4 responses specific for the central region of MELOE-1 (11-30) for 7/9 patients, whereas responses specific for MELOE-12-21 and MELOE-122-46 were respectively detected in 4/9 and 5/9 patients (Table III). These responses were mainly Th1 responses (IFN-g production) while less frequent Th2 responses specific for the three regions of MELOE-1 were detected in 3/9 patients for MELOE-12-21, 2/9 patients for MELOE-111-30 and 5/9 patients for MELOE-122-46 (Table III). […] Concerning Th2 responses, much less frequent, the C-term region appeared to induce more frequently the growth of IL-4 producing CD4 T cells than the two other regions (FIG. 2A). […] In summary, stimulation of patient's PBMC with MELOE-1 induced Th1 responses specific for diverse epitopes located all along the protein sequence, and among the different regions, the central region (11-30) and the C-term region (22-46) appeared to be especially immunogenic in term of frequency of responses.
# [3] = donor HD9 (DPβ1*0902/1501, DQβ1*0301, DRβ1*1104/1201)
# [4] = donor HD17 (DPβ1*0401/0301, DQβ1*0301/0603, DRβ1*1101/1301)
# [5] = donor HD22 (DPβ1*0401/1101, DQβ1*0202, DRβ1*0701)
# [6] = donor HD24 (DPβ1*0401/0101, DQβ1*0501/0602, DRβ1*0101/1501)
# [7] = donor HD25 (DPβ1*0401/0402, DQβ1*0201, DRβ1*0301)
# [8] = donor HD27 (DQβ1*501/0201, DRβ1*0101/0301)
# [9] = patient Pt ≠ 3 (DPβ1*0201/2001, DQβ1*0303/0501, DRβ1*0101/0701)
sequence,measurement,setting,value
SCVGYPDEATSREQFLPSEG (SCVGYPDEATSREQFLPSEC) [MELOE-12-21],"mean % of TNF-α producing CD4 T cells, in positive microcultures",[1]; donor HD9,(1.4% ± 0.6)
same,Microcultures containing MELOE-1 specific CD4+ T cells (TNF-α production),[1]; [3],9/96
same,"mean % of TNF-α producing CD4 T cells, in positive microcultures",[1]; donor HD17,(3.2% ± 1.9)
same,Microcultures containing MELOE-1 specific CD4+ T cells (TNF-α production),[1]; [4],6/96
same,"mean % of TNF-α producing CD4 T cells, in positive microcultures",[1]; donor HD22,(1%)
same,Microcultures containing MELOE-1 specific CD4+ T cells (TNF-α production),[1]; [5],1/96
same,"mean % of TNF-α producing CD4 T cells, in positive microcultures",[1]; donor HD24,(1.3% ± 0.8)
same,Microcultures containing MELOE-1 specific CD4+ T cells (TNF-α production),[1]; [6],3/96
same,"mean % of TNF-α producing CD4 T cells, in positive microcultures",[1]; donor HD25,(0.6% ± 0.1)
same,Microcultures containing MELOE-1 specific CD4+ T cells (TNF-α production),[1]; [7],3/96
same,Microcultures containing MELOE-1 specific CD4+ T cells (TNF-α production),[1]; [8],0/96
same,"mean % of TNF-α producing CD4 T cells, in positive microcultures",[1]; donor HD28,(2.7% ± 1.2)
same,Microcultures containing MELOE-1 specific CD4+ T cells (TNF-α production),[1]; donor HD28 (DRβ1*0301),30/48
same,% of positive microcultures,[1]; healthy donor HD28,62%
same,donors in which CD4 responses against the region were detected,[1],6/7
same,"Th1 responses, % of tested microcultures",[2],3.3%
same,patients in which Th2 responses were detected,[2],3/9
same,patients in which CD4 responses specific for the region were detected,[2],4/9
same,"mean % of cytokine producing CD4 T cells, in positive microcultures (IFN-γ)",[2]; patient Pt ≠ 1,(0.7%)
same,Th1 responses (IFN-γ positive microcultures),[2]; patient Pt ≠ 1,1/48
same,Th2 responses (IL4 positive microcultures),[2]; patient Pt ≠ 1,0/48
same,"mean % of cytokine producing CD4 T cells, in positive microcultures (IFN-γ)",[2]; patient Pt ≠ 2,(0.8% ± 0.2)
same,Th1 responses (IFN-γ positive microcultures),[2]; patient Pt ≠ 2,4/96
same,Th2 responses (IL4 positive microcultures),[2]; patient Pt ≠ 2,0/96
same,Th1 responses (IFN-γ positive microcultures),[2]; [9],10/96
same,"mean % of cytokine producing CD4 T cells, in positive microcultures (IFN-γ)",[2]; patient Pt ≠ 3,(1.7% ± 2.9)
same,Th2 responses (IL4 positive microcultures),[2]; patient Pt ≠ 3,0/96
same,"mean % of cytokine producing CD4 T cells, in positive microcultures (IL4)",[2]; patient Pt ≠ 4,(0.7%)
same,Th1 responses (IFN-γ positive microcultures),[2]; patient Pt ≠ 4,0/48
same,Th2 responses (IL4 positive microcultures),[2]; patient Pt ≠ 4,1/48
same,"mean % of cytokine producing CD4 T cells, in positive microcultures (IFN-γ)",[2]; patient Pt ≠ 5,(0.6%)
same,"mean % of cytokine producing CD4 T cells, in positive microcultures (IL4)",[2]; patient Pt ≠ 5,(0.7% ± 0.1)
same,Th1 responses (IFN-γ positive microcultures),[2]; patient Pt ≠ 5,1/48
same,Th2 responses (IL4 positive microcultures),[2]; patient Pt ≠ 5,2/48
same,Th1 responses (IFN-γ positive microcultures),[2]; patient Pt ≠ 6,0/48
same,Th2 responses (IL4 positive microcultures),[2]; patient Pt ≠ 6,0/48
same,Th1 responses (IFN-γ positive microcultures),[2]; patient Pt ≠ 7,0/48
same,Th2 responses (IL4 positive microcultures),[2]; patient Pt ≠ 7,0/48
same,Th1 responses (IFN-γ positive microcultures),[2]; patient Pt ≠ 8,0/48
same,Th2 responses (IL4 positive microcultures),[2]; patient Pt ≠ 8,0/48
same,"mean % of cytokine producing CD4 T cells, in positive microcultures (IL4)",[2]; patient Pt ≠ 9,(0.6%)
same,Th1 responses (IFN-γ positive microcultures),[2]; patient Pt ≠ 9,0/48
same,Th2 responses (IL4 positive microcultures),[2]; patient Pt ≠ 9,1/48
TSREQFLPSEGAACPPWHPS [MELOE-111-30],frequency of positive microcultures compared with the three other regions of MELOE-1,"[1]; all healthy donors, FIG. 1, p<0.0001",significantly higher
same,"mean % of TNF-α producing CD4 T cells, in positive microcultures",[1]; donor HD9,(2.4% ± 1.5)
same,Microcultures containing MELOE-1 specific CD4+ T cells (TNF-α production),[1]; [3],13/96
same,"mean % of TNF-α producing CD4 T cells, in positive microcultures",[1]; donor HD17,(8.2% ± 6.5)
same,Microcultures containing MELOE-1 specific CD4+ T cells (TNF-α production),[1]; [4],26/96
same,"mean % of TNF-α producing CD4 T cells, in positive microcultures",[1]; donor HD22,(3.9% ± 3.3)
same,Microcultures containing MELOE-1 specific CD4+ T cells (TNF-α production),[1]; [5],2/96
same,"mean % of TNF-α producing CD4 T cells, in positive microcultures",[1]; donor HD24,(2% ± 1.4)
same,Microcultures containing MELOE-1 specific CD4+ T cells (TNF-α production),[1]; [6],46/96
same,"mean % of TNF-α producing CD4 T cells, in positive microcultures",[1]; donor HD25,(1.2% ± 0.7)
same,Microcultures containing MELOE-1 specific CD4+ T cells (TNF-α production),[1]; [7],3/96
same,"mean % of TNF-α producing CD4 T cells, in positive microcultures",[1]; donor HD27,(5% ± 3.4)
same,Microcultures containing MELOE-1 specific CD4+ T cells (TNF-α production),[1]; [8],5/96
same,Microcultures containing MELOE-1 specific CD4+ T cells (TNF-α production),[1]; donor HD28 (DRβ1*0301),14/48
same,donors in which CD4 responses against the region were detected,[1],each tested donor
same,"Th1 responses, % of tested microcultures",[2],10.8%
same,patients in which Th2 responses were detected,[2],2/9
same,patients in which CD4 responses specific for the region were detected,[2],7/9
same,"mean % of cytokine producing CD4 T cells, in positive microcultures (IFN-γ)",[2]; patient Pt ≠ 1,(1.4% ± 0.7)
same,"mean % of cytokine producing CD4 T cells, in positive microcultures (IL4)",[2]; patient Pt ≠ 1,(1%)
same,Th1 responses (IFN-γ positive microcultures),[2]; patient Pt ≠ 1,10/48
same,Th2 responses (IL4 positive microcultures),[2]; patient Pt ≠ 1,1/48
same,"mean % of cytokine producing CD4 T cells, in positive microcultures (IFN-γ)",[2]; patient Pt ≠ 2,(1.6% ± 1.2)
same,Th1 responses (IFN-γ positive microcultures),[2]; patient Pt ≠ 2,16/96
same,Th2 responses (IL4 positive microcultures),[2]; patient Pt ≠ 2,0/96
same,Th1 responses (IFN-γ positive microcultures),[2]; [9],5/96
same,"mean % of cytokine producing CD4 T cells, in positive microcultures (IFN-γ)",[2]; patient Pt ≠ 3,(16.2% ± 33.2)
same,Th2 responses (IL4 positive microcultures),[2]; patient Pt ≠ 3,0/96
same,"mean % of cytokine producing CD4 T cells, in positive microcultures (IFN-γ)",[2]; patient Pt ≠ 4,(0.9% ± 0.5)
same,Th1 responses (IFN-γ positive microcultures),[2]; patient Pt ≠ 4,9/48
same,Th2 responses (IL4 positive microcultures),[2]; patient Pt ≠ 4,0/48
same,"mean % of cytokine producing CD4 T cells, in positive microcultures (IFN-γ)",[2]; patient Pt ≠ 5,(1.5% ± 1.1)
same,Th1 responses (IFN-γ positive microcultures),[2]; patient Pt ≠ 5,6/48
same,Th2 responses (IL4 positive microcultures),[2]; patient Pt ≠ 5,0/48
same,"mean % of cytokine producing CD4 T cells, in positive microcultures (IFN-γ)",[2]; patient Pt ≠ 6,(1.5% ± 1.9)
same,Th1 responses (IFN-γ positive microcultures),[2]; patient Pt ≠ 6,5/48
same,Th2 responses (IL4 positive microcultures),[2]; patient Pt ≠ 6,0/48
same,Th1 responses (IFN-γ positive microcultures),[2]; patient Pt ≠ 7,0/48
same,Th2 responses (IL4 positive microcultures),[2]; patient Pt ≠ 7,0/48
same,"mean % of cytokine producing CD4 T cells, in positive microcultures (IFN-γ)",[2]; patient Pt ≠ 8,(2.9% ± 0.04)
same,Th1 responses (IFN-γ positive microcultures),[2]; patient Pt ≠ 8,2/48
same,Th2 responses (IL4 positive microcultures),[2]; patient Pt ≠ 8,0/48
same,"mean % of cytokine producing CD4 T cells, in positive microcultures (IL4)",[2]; patient Pt ≠ 9,(0.6% ± 0.09)
same,Th1 responses (IFN-γ positive microcultures),[2]; patient Pt ≠ 9,0/48
same,Th2 responses (IL4 positive microcultures),[2]; patient Pt ≠ 9,9/48
